Results from article doi:10.1101/2024.08.19.608619, “Discovery of potent SARS-CoV-2 nsp3 macrodomain inhibitors uncovers lack of translation to cellular antiviral response” (bioRxiv, 2024).
Like-named read-outs stand apart in the source and are kept apart here.

Columns and labels:
[1] = target: T1, SARS-CoV-2 nsp3-mac1 (Severe acute respiratory syndrome coronavirus 2, UniProt P0DTD1); experiment: biochemical; format: biochemical; settings: SARS-CoV-2 nsp3 macrodomain TR-FRET single point, n=2
[2] = target: T1, SARS-CoV-2 nsp3-mac1; experiment: biochemical; set-up: SARS-CoV-2 nsp3 macrodomain TR-FRET single point, per cent inhibition, n=2
[3] = read-out: perc_inhibition_mean, batch_name=ASAP-0000302-001
[4] = read-out: perc_inhibition_mean, batch_name=ASAP-0000303-001
[5] = read-out: perc_inhibition_mean, batch_name=ASAP-0000304-001
[6] = read-out: perc_inhibition_mean, batch_name=ASAP-0000305-001
[7] = read-out: perc_inhibition_mean, batch_name=ASAP-0000306-001
[8] = read-out: perc_inhibition_mean, batch_name=ASAP-0000307-001
[9] = read-out: perc_inhibition_mean, batch_name=ASAP-0000308-001
[10] = read-out: perc_inhibition_mean, batch_name=ASAP-0000309-001
[11] = read-out: perc_inhibition_mean, batch_name=ASAP-0000310-001
[12] = read-out: perc_inhibition_mean, batch_name=ASAP-0000311-001
[13] = read-out: perc_inhibition_mean, batch_name=ASAP-0000312-001
[14] = read-out: perc_inhibition_mean, batch_name=ASAP-0000313-001
[15] = read-out: perc_inhibition_mean, batch_name=ASAP-0000314-001
[16] = read-out: perc_inhibition_mean, batch_name=ASAP-0000315-001
[17] = read-out: perc_inhibition_mean, batch_name=ASAP-0000316-001
[18] = read-out: perc_inhibition_mean, batch_name=ASAP-0000317-001
[19] = read-out: perc_inhibition_mean, batch_name=ASAP-0000318-001

| Structure (SMILES) | perc_inhibition_mean ([1]; concentration 49.75 uM) | perc_inhibition_mean ([1]; concentration 99.5 uM) | also measured |
| --- | --- | --- | --- |
| C[C@@H]1[C@H](O)CCCN1C(=O)c1ccc(NC(=O)Nc2ccccc2)cc1 [ASAP-0000302] | -2.963% | -2.724% | inhibition at 49.75 µM [2, 3]: -2.96%; inhibition at 99.5 µM [2, 3]: -2.72% |
| O=C(Nc1ccccc1)Nc1ccc(C(=O)N2CCn3nccc3C2)cc1 [ASAP-0000303] | -3.111% | 2.299% | inhibition at 49.75 µM [2, 4]: -3.11%; inhibition at 99.5 µM [2, 4]: 2.3% |
| O=C(Nc1ccccc1)Nc1ccc(C(=O)NCc2ccnc(F)c2)cc1 [ASAP-0000304] | -0.36% | 4.92% | inhibition at 49.75 µM [2, 5]: -0.36%; inhibition at 99.5 µM [2, 5]: 4.92% |
| CC1(C)CNCCN1C(=O)c1ccc(NC(=O)Nc2ccccc2)cc1 [ASAP-0000305] | 2.242% | 1.393% | inhibition at 49.75 µM [2, 6]: 2.24%; inhibition at 99.5 µM [2, 6]: 1.39% |
| NCC(F)(F)CNC(=O)c1ccc(NC(=O)Nc2ccccc2)cc1 [ASAP-0000306] | -0.965% | -1.174% | inhibition at 49.75 µM [2, 7]: -0.965%; inhibition at 99.5 µM [2, 7]: -1.17% |
| Cn1cc(NC(=O)c2ccc(NC(=O)Nc3ccccc3)cc2)c(C#N)n1 [ASAP-0000307] | 2.492% | -0.539% | inhibition at 49.75 µM [2, 8]: 2.49%; inhibition at 99.5 µM [2, 8]: -0.539% |
| O=C(Nc1ccccc1)Nc1ccc(C(=O)NCCc2cccnc2)cc1 [ASAP-0000308] | 1.269% | 10.372% | inhibition at 49.75 µM [2, 9]: 1.27%; inhibition at 99.5 µM [2, 9]: 10.4% |
| COc1cccc(NC(=O)c2ccc(NC(=O)Nc3ccccc3)cc2)n1 [ASAP-0000309] | 4.647% | 5.367% | inhibition at 49.75 µM [2, 10]: 4.65%; inhibition at 99.5 µM [2, 10]: 5.37% |
| O=C(O)c1sccc1C(=O)N1CCC(c2ccn3ncc(C(=O)N4CCCCC4)c3c2)CC1 [ASAP-0000310] | 55.49% | 71.528% | inhibition at 49.75 µM [2, 11]: 55.5%; inhibition at 99.5 µM [2, 11]: 71.5% |
| O=C(CCN(Cc1cccc(Cl)c1)C(=O)c1ccccc1F)N1CCNCC1 [ASAP-0000311] | -0.625% | 0.395% | inhibition at 49.75 µM [2, 12]: -0.625%; inhibition at 99.5 µM [2, 12]: 0.395% |
| C[C@]1(C(=O)N(CCC(=O)N2CCNCC2)Cc2cccc(Cl)c2)CCCN1 [ASAP-0000312] | 1.403% | 2.129% | inhibition at 49.75 µM [2, 13]: 1.4%; inhibition at 99.5 µM [2, 13]: 2.13% |
| O=C(Nc1ccccc1)Nc1ccc(C(=O)Nc2ncccc2F)cc1 [ASAP-0000313] | 4.588% | 10.201% | inhibition at 49.75 µM [2, 14]: 4.59%; inhibition at 99.5 µM [2, 14]: 10.2% |
| Cc1ncc(C(=O)N(CCC(=O)N2CCNCC2)Cc2cccc(Cl)c2)cc1N [ASAP-0000314] | 1.351% | 1.305% | inhibition at 49.75 µM [2, 15]: 1.35%; inhibition at 99.5 µM [2, 15]: 1.3% |
| CC(C)c1c[nH]nc1NC(=O)c1ccc(NC(=O)Nc2ccccc2)cc1 [ASAP-0000315] | 6.988% | 8.502% | inhibition at 49.75 µM [2, 16]: 6.99%; inhibition at 99.5 µM [2, 16]: 8.5% |
| CCc1n[nH]c(NC(=O)c2ccc(NC(=O)Nc3ccccc3)cc2)c1Br [ASAP-0000316] | -5.574% | 0.467% | inhibition at 49.75 µM [2, 17]: -5.57%; inhibition at 99.5 µM [2, 17]: 0.467% |
| O=C(Nc1ccccc1)Nc1ccc(C(=O)Nc2nnc(C(F)(F)F)[nH]2)cc1 [ASAP-0000317] | -3.198% | -1.459% | inhibition at 49.75 µM [2, 18]: -3.2%; inhibition at 99.5 µM [2, 18]: -1.46% |
| O=C(CCN(Cc1cccc(Cl)c1)C(=O)c1c[nH]c(=O)cn1)N1CCNCC1 [ASAP-0000318] | -2.705% | 0.98% | inhibition at 49.75 µM [2, 19]: -2.71%; inhibition at 99.5 µM [2, 19]: 0.98% |
